Assays:
[1] = test system: 104 cancer‐related kinases; experiment: Kinase activity detection (Eurofins), whole panel; format: biochemical; settings: ZY0511 1 μM
Protocol: (§1) The activity of ZY0511 against 104 cancer‐related kinases was carried out by Eurofins Pharma Discovery Services (Celle Lévescault, France).

[2] = test system: PLC/PRF/5; experiment: EdU incorporation assay; settings: PLC/PRF/5, 96 h
[3] = biological target: T1, EGFR (Homo sapiens, UniProt P00533); experiment: Kinase activity detection (Eurofins); format: biochemical; settings: ZY0511 1 µM, read-out: Inhibition rate
T1 construct: purchased Eurofins Pharma Discovery Services (KinaseProfiler)
T1 sequence (P00533 25-1210): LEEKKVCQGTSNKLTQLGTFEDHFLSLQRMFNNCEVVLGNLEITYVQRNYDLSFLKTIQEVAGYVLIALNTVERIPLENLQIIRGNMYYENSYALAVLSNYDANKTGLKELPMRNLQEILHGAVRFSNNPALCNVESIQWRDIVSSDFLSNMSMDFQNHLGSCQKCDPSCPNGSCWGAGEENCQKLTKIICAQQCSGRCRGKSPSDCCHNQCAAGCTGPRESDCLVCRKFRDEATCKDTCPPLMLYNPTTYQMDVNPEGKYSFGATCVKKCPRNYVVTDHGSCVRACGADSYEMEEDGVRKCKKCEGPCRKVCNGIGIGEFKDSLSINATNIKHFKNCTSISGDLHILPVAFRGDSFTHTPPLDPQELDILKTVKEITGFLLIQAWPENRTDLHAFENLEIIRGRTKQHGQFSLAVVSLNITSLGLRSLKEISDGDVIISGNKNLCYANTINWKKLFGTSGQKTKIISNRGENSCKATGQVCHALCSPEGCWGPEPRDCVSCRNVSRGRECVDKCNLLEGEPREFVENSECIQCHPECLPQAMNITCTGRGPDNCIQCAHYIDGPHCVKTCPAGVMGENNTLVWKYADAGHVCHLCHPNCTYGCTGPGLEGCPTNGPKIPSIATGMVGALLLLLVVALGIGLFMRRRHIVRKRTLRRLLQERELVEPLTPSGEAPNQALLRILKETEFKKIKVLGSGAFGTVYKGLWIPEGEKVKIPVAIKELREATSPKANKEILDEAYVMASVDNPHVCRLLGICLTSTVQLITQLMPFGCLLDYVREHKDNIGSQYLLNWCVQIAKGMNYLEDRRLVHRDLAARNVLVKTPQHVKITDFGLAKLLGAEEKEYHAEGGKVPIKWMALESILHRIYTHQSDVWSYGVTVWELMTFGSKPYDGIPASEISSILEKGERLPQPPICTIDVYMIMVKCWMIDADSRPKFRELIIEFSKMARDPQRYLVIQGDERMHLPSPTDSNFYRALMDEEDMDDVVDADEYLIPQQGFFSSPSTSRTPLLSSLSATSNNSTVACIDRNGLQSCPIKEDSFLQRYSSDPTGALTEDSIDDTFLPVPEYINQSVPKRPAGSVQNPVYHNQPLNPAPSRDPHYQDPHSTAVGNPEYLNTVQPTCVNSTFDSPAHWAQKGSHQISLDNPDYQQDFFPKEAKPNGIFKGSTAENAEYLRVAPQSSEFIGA
Protocol: as §1

[4] = biological target: T2, HIPK2 (Homo sapiens, UniProt Q9H2X6); experiment: Kinase activity detection (Eurofins); format: biochemical; settings: ZY0511 1 µM, read-out: Inhibition rate
T2 construct: purchased Eurofins Pharma Discovery Services
T2 sequence (Q9H2X6 whole entry, species assumed): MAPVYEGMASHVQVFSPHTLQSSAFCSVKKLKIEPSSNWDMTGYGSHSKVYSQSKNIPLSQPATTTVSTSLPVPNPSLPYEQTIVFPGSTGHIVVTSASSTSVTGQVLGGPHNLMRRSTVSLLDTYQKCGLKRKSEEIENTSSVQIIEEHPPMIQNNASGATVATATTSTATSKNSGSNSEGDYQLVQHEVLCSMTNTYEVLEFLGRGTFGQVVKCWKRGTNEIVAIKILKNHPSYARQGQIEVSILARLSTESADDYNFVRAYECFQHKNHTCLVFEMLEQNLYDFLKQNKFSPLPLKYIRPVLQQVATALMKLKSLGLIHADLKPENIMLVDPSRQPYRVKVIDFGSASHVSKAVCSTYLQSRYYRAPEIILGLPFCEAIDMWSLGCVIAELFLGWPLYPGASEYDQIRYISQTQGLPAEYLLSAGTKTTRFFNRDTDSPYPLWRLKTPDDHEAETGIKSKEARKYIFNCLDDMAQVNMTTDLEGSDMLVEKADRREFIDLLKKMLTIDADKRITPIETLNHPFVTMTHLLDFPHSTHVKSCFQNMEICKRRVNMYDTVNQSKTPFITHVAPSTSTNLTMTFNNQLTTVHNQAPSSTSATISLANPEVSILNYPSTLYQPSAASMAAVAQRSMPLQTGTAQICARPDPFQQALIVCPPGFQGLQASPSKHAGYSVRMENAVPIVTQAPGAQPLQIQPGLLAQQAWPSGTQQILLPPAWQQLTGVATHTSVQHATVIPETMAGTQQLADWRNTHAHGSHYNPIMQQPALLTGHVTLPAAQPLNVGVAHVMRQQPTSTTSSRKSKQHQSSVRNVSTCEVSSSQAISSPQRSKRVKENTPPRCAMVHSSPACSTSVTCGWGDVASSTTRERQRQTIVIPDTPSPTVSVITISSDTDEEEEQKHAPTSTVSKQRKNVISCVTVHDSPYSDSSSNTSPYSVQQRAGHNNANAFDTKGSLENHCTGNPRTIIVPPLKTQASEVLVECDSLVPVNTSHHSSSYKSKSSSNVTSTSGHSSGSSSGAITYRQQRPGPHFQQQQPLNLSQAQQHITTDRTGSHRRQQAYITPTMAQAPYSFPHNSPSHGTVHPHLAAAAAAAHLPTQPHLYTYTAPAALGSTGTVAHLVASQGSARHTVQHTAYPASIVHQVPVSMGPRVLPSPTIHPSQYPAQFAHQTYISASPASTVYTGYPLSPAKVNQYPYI
Protocol: as §1

[5] = biological target: T3, HIPK3 (Homo sapiens, UniProt Q9H422); experiment: Kinase activity detection (Eurofins); format: biochemical; settings: ZY0511 1 µM, read-out: Inhibition rate
T3 construct: purchased Eurofins Pharma Discovery Services (KinaseProfiler)
T3 sequence (Q9H422 whole entry): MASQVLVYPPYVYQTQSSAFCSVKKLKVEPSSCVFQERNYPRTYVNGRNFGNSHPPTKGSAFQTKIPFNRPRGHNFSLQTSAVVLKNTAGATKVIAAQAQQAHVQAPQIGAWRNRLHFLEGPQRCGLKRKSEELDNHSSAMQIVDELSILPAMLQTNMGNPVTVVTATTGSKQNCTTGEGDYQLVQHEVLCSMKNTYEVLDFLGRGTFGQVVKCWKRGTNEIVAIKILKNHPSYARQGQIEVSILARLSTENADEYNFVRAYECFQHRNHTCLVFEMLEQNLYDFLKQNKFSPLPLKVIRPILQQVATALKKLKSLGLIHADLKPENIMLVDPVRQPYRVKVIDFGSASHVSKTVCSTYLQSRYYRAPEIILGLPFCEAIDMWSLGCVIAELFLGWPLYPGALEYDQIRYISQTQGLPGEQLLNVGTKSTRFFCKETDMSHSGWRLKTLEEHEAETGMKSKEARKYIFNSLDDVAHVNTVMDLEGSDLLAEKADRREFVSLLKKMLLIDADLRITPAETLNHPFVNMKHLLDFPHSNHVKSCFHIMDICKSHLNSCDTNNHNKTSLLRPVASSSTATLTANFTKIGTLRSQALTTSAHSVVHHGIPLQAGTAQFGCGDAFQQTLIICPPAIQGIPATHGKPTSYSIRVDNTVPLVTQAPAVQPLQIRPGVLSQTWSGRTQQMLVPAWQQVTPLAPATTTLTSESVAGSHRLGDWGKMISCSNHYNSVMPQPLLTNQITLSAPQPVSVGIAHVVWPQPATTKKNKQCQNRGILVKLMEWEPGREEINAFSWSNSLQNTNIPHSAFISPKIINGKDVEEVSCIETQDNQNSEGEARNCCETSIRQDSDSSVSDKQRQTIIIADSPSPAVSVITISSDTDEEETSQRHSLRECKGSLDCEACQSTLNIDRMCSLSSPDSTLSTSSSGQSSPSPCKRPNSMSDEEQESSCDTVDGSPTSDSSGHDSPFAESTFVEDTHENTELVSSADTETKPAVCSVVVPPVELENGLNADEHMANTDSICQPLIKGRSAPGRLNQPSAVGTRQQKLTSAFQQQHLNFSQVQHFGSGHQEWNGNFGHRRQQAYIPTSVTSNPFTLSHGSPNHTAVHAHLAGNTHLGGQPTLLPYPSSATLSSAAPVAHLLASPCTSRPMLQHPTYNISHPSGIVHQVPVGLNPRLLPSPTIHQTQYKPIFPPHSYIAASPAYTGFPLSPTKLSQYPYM
Protocol: as §1

[6] = biological target: T4, PDK1 (Homo sapiens, UniProt O15530); experiment: Kinase activity detection (Eurofins); format: biochemical; settings: ZY0511 1 µM, read-out: Inhibition rate
T4 construct: purchased Eurofins Pharma Discovery Services (KinaseProfiler)
T4 sequence (O15530 whole entry): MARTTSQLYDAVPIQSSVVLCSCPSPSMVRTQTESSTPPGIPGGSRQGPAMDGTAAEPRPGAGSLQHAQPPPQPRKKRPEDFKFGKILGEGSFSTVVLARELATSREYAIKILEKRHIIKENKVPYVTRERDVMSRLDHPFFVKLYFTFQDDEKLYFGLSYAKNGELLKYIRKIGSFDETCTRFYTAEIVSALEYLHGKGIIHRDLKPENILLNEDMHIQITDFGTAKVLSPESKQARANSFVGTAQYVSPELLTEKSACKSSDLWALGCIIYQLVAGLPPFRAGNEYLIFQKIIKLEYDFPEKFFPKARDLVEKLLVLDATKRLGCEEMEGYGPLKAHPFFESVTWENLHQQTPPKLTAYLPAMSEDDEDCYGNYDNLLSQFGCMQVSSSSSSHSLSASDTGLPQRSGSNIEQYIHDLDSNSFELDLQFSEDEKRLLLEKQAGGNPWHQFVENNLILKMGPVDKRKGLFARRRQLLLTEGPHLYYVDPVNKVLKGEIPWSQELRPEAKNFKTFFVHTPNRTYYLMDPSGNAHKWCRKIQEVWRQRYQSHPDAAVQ
Protocol: as §1

[7] = biological target: T5, MELK (Homo sapiens, UniProt Q14680); experiment: Kinase activity detection (Eurofins); format: biochemical; settings: ZY0511 1 µM, read-out: Inhibition rate
T5 construct: purchased Eurofins Pharma Discovery Services
T5 sequence (Q14680 whole entry, species assumed): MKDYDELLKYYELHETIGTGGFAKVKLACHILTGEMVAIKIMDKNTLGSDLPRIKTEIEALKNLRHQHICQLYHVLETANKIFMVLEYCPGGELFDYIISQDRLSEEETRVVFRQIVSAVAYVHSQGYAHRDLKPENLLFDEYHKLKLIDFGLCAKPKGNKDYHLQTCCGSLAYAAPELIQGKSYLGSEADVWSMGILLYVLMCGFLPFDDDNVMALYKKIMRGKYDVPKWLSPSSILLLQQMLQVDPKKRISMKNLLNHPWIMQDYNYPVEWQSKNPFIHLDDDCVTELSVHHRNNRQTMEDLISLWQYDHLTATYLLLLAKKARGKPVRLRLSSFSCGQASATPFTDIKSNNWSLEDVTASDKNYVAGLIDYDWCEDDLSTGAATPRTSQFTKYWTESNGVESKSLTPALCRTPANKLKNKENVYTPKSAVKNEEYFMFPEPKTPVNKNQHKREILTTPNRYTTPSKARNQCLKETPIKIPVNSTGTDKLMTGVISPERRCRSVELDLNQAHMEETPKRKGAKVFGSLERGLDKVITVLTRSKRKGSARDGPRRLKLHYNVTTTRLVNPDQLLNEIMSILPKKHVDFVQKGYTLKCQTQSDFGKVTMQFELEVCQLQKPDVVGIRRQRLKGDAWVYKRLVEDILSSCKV
Protocol: as §1

[8] = biological target: T6, Fer (Homo sapiens, UniProt P16591); experiment: Kinase activity detection (Eurofins); format: biochemical; settings: ZY0511 1 µM, read-out: Inhibition rate
T6 construct: purchased Eurofins Pharma Discovery Services (KinaseProfiler)
Protocol: as §1

[9] = biological target: T7, MEK1 (Homo sapiens, UniProt Q02750); experiment: Kinase activity detection (Eurofins); format: biochemical; settings: ZY0511 1 µM, read-out: Inhibition rate
T7 construct: purchased Eurofins Pharma Discovery Services (KinaseProfiler)
Protocol: as §1

[10] = test system: HepG2; experiment: MTT assay, ZY0511 and DTP3; format: cell-based; settings: Homo sapiens, HepG2, 96 h, read-out: Inhibition rate
Protocol: (§2) Cell viability was determined using Cell Counting Kit‐8 (CCK8; Dojindo) or 3‐(4, 5‐dimethylthiazol‐2‐yl)‐2,5‐diphenyltetrazoliumbromide (MTT, Sigma Aldrich) assay. A selection of HCC cells was exposed to gradient concentration of ZY0511 for 96–144 h, or exposed to other LSD1 inhibitors including SP2509, GSK2879552, and ORY1001 for 144 h, or exposed to DTP3, which enhanced the apoptosis induction function of GADD45B for 96 h in combination therapy. Consequently, cell viability was determined using a microplate reader (Thermo Fisher) at 450 nm for CCK8 assay, or 570 nm for MTT assay, at different time points. The IC50 values and CI values were analyzed and calculated using GraphPad Prism 8 and CompuSyn (version 1.0; http://www.combosyn.com), respectively.

[11] = test system: Hep3B; experiment: MTT assay, ZY0511 and DTP3; format: cell-based; settings: Homo sapiens, 96 h, read-out: Inhibition rate
Protocol: as §2

[12] = Acute toxicity assay

## O=C(N/N=C1\CCc2c(Cl)ccc(O)c21)c1cccc(S(=O)(=O)N2CCOCC2)c1 [ZY0511, (E)‐N'‐(2, 3‐dihydro‐1H‐inden‐1‐ylidene) benzohydrazides]
[1]
  effect against other kinases, including FGFR, VEGFR, and PDGFR: no effect
[2]
  inhibition rate of EdU‐positive cells: 9.2%
[3]
  inhibition at 1 µM: 7%
[4]
  inhibition at 1 µM: 13%
[5]
  inhibition at 1 µM: 6%
[6]
  inhibition at 1 µM: 8%
[7]
  inhibition at 1 µM: 1%
[8]
  inhibition at 1 µM: 47%
[9]
  inhibition at 1 µM: 6%
[10]
  inhibition at 0.25 µM: 47%
  inhibition at 0.5 µM: 65%
  inhibition at 1 µM: 79%
  inhibition at 2 µM: 80%
[11]
  inhibition at 0.25 µM: 31%
  inhibition at 0.5 µM: 42%
  inhibition at 1 µM: 49%
  inhibition at 2 µM: 61%
[12]; 400 mg/kg i.p., day 14
  blood routine indexes (red blood cell, white blood cell, lymph cell): did not change
  liver and kidney function indexes (ALT, AST, creatinine): did not change
[12]; 400 mg/kg i.p., day 14, H&E
  pathology of main organs (heart, liver, spleen, lung, kidney): No pathological abnormality
[12]; mice, i.p.
  no observed adverse effect level: 400 mg/kg

Reference: PMC10209615, “Pharmacological inhibition of LSD1 suppresses growth of hepatocellular carcinoma by inducing GADD45B” (MedComm, 2023)
